Results reported in patent US9499511B2, “N-substituted hydroxylamine derivatives with carbon-based leaving groups” (The Johns Hopkins University, priority 2011, dated 2016).
Counter-ions that a name gives are not always drawn.

Key:
[1] = Decomposition monitored by 1H NMR spectroscopy (carbanion yield, kinetics, half-life); assay type: physicochemical; details: 10% D2O
Source text: […] In each case, the bottom spectrum was collected at the start of the experiment, and the top spectrum after complete decomposition.
NMR spectra were obtained on a Bruker Avance 400 MHz FT-NMR spectrometer. […] High-resolution mass spectra were obtained on a VG Analytical VG70SE magnetic sector mass spectrometer operating in fast atom bombardment (FAB) mode. […]

[2] = Decomposition kinetics monitored by UV-Vis spectroscopy; assay type: physicochemical; details: PBS, pH 7.4, Condition A: pH 7.4, 37° C., 0.1M PBS, 100 μL DTPA, air (UV/Vis)
[3] = comparison value; cited from earlier work
[4] = N2O headspace analysis (GC) of HNO production, relative to Angeli's salt; assay type: physicochemical; details: for HNO / N2O production (in words): decomposition at pH 7.4; for % HNO: donor 0.1 mM, 37° C., PBS pH 7.4, yield relative to Angeli's salt by N2O headspace analysis, SEM ±5%, n = 3
Description: Nitrous oxide is produced via the dimerization and dehydration of HNO, and is the most common marker for HNO production (Fukuto, J. M. et al., Chem. Res. Toxicol. 2005, 18, 790-801).
Gas chromatography was performed on a Varian CP-3800 instrument equipped with a 1041 manual injector, electron capture detector, and a 25 m 5 Å molecular sieve capillary column. Grade 5.0 nitrogen was used as both the carrier (8 mL/min) and the make-up (22 mL/min) gas. The injector oven and the detector oven were kept at 200° C. and 300° C., respectively. All nitrous oxide analyses were performed with the column oven held constant at 150° C. All gas injections were made using a 100 μL gastight syringe with a sample-lock. Samples were prepared in 15 mL amber headspace vials with volumes pre-measured for sample uniformity (actual vial volume ranges from 15.19-15.20 mL). Vials were charged with 5 mL of PBS buffer containing DTPA, purged with argon, and sealed with a rubber septum. The vials were equilibrated for at least 10 minutes at 37° C. in a dry block heater. A 10 mM stock solution of Angeli's salt (AS) was prepared in 10 mM sodium hydroxide, and HNO donors 1a-4a, 6a (10 mM) were prepared in acetonitrile or methanol and used immediately after preparation. From these stock solutions, 50 μL was introduced into individual thermally-equilibrated headspace vials using a gastight syringe, yielding final substrate concentrations of 0.1 mM. Substrates were then incubated long enough to ensure complete decomposition and equilibration of N2O with the headspace. The headspace (60 μL) was then sampled and injected five successive times using a gastight syringe with a sample lock. This was repeated for n≧3 vials per donor. The nitrous oxide yield was averaged and reported relative to the standard, Angeli's salt. For chemical trapping of HNO, glutathione (100 μL of 10 mM in PBS) was added prior to HNO donor addition to give a final glutathione concentration of 0.2 mM, and headspace sampling for N2O was analogously performed as stated above.

[5] = Decomposition kinetics monitored by UV-Vis spectroscopy; assay type: physicochemical
Description: NMR spectra were obtained on a Bruker Avance 400 MHz FT-NMR spectrometer. […] High-resolution mass spectra were obtained on a VG Analytical VG70SE magnetic sector mass spectrometer operating in fast atom bombardment (FAB) mode. […] Phosphate-buffered saline (PBS) solutions (0.1 M) were prepared with 140 mM NaCl and 3 mM KCl, with 100 μM diethylenetriaminepentaacetic acid (DTPA), adjusted to pH 7.4.

[6] = system: Sprague-Dawley rats; assay: Acute cardiovascular effects, pressure-volume (PV) loop analysis in anesthetized rats; assay type: in vivo, rat; details: IV infusion 100 μg/kg/min, 5 rats
Description: The acute cardiovascular effects of compounds 4a and 6a, when administered intravenously to Sprague-Dawley rats at an infusion rate of 100 μg/kg/min, were examined by means of pressure-volume (PV) curve (loops) analysis. PV families/relationships were generated via pre-load variation and hemodynamic indices were compared to baseline values. Each test article was administered to 5 rats.
Rats were intraperitoneally (IP) anesthetized to effect with pentobarbital (˜50 mg/kg), shaved and positioned in dorsal recumbence, endotracheally intubated and ventilated […], ˜2.5 mL tidal volume with 95% O2/5% CO2) with an adjustable small animal ventilator (Harvard Apparatus). Anesthesia was maintained with a continuous pentobarbital infusion (to effect, ˜3 to 5 mg/kg/h, IV) until completion of the experiment via an indwelling catheter placed in a femoral vein. Subsequently, transthoracic needle electrodes forming a single-lead ECG were placed. For LV mechano-energetic evaluation, the right carotid artery was isolated, dissected free from the surrounding tissue, and cannulated with a 2F high-fidelity conductance/micromanometer catheter (Millar Instruments). This catheter was advanced retrograde across the aortic valve and into the LV chamber in order to simultaneously determine left-ventricular pressure and volume (via conductivity). […] Meanwhile, in order to record arterial pressures, a 2F high-fidelity micromanometer catheter (Millar Instruments) was inserted into a femoral artery and advanced towards the abdominal aorta. Finally, an in-dwelling catheter was placed into the jugular vein for administration of test article.
Following collection of baseline hemodynamic data, infusion of test article was initiated at an infusion rate of 100 μg/kg/min; at 10 μL/min. Pressure-volume analyses were performed again approximately 30 min and 45 min after the initiation of the dose.
The resulting left-ventricular pressure and volume data was analyzed offline (IOX/ECG Auto; EMKA Technologies) in order to generate relationships representing the contractile and energetic state of the myocardium. Systolic (SAP), diastolic (DAP), and mean (MAP) arterial pressures were collected. Left-ventricular mechanical and/or geometrical indices were obtained from the pressure (ESP, EDP, dP/dt max/min, time-constant of relaxation—tau [based on mono-exponential decay with non-zero asymptote]) and volume (ESV, EDV, SV) signal. In addition, the following measurements were derived from left-ventricular pressure-volume data (PV loops) generated during brief periods of preload reduction: • Pressure volume area (PVA) and stroke work (SW). • End-systolic (ESPVR) and end-diastolic (EDPVR) pressure volume relationships. • End systolic pressure and stroke volume relationship (Arterial Elastance, Ea).
Data are presented as means with standard errors (mean±SEM) in Table 6.

[7] = PBS, pH 7.4, Condition B: pH 7.4, 37° C., 0.25M PBS, no chelator, air (1H NMR)
[8] = PBS, pH 7.4, Condition G: pH 7.4, 37° C., 0.25M PBS, 100 μL DTPA, air (1H NMR)

For `CC1=NN(c2ccccc2)C(=O)C1(C)NO` (centres unmarked) [Compound 8a, 4-(N-hydroxylamine)-4-methyl-N-phenyl-5-methyl-pyrazolone], the half-life [1, 7] was 16 h, the half-life ([1]; PBS, pH 7.4, Condition C: pH 7.4, 37° C., 0.25M PBS, 100 μL DTPA, BME (20 equiv.), argon (1H NMR)) was 28 h and the half-life ([1]; PBS, pH 7.4, Condition D: pH 7.4, 37° C., 0.25M PBS, 100 μL DTPA, GSH (2 equiv.), argon (1H NMR)) was 50 h. It also gave a half-life ([1]; PBS, pH 7.4, Condition E: pH 7.4, 37° C., 0.25M PBS, 100 μL DTPA, 12b (1 equiv.), air (1H NMR)) of 100 h.
With `CO/N=C(\C)C1(NO)C(=O)N(C)N=C1C` (centres unmarked) [Compound 7a, 4-(N-hydroxylamine)-4-(acetyl-O-methoxyoxime)-N-methyl-5-methyl-pyrazolone] the half-life [2] was 0.383 h.
For `CC1(C)OC(=O)CC(=O)O1` [Meldrum's acid], the pKa [3] is given as 4.8.
With `CC1=NNC(=O)C1(C)NO` (centres unmarked) [Compound 12a, 4-(N-hydroxylamine)-4-methyl-5-methyl-pyrazolone] the “% remains after 7 d” value ([1]; Condition G: pH 7.4, 37° C., 0.25M PBS, 100 μL DTPA, air (1H NMR)) was 70% remains after 7 d.
With `CC1=NN(C)C(=O)C1(C)NO` (centres unmarked) [Compound 9a, 4-(N-hydroxylamine)-4-methyl-N-methyl-5-methyl-pyrazolone] the “% remains after 48 h” value ([1]; Condition F: pH 7.4, 37° C., 0.25M PBS, no chelator, nitrogen (1H NMR)) was 84% remains after 48 and the half-life [1, 7] was 48 h.
In the case of `CCC1(NO)C(=O)N(C)C(=O)N(C)C1=O` [Compound 3a, 5-(N-hydroxylamine)-5-ethyl-N,N-dimethylbarbituric acid hydrochloride], the “HNO / N2O production (in words)” value [4] is reported as “produced little HNO” and the “% HNO” value [4] is reported as 2%.
In the case of `CC1=NN(c2ccccc2)C(=O)C1` [edaravone], the pKa [3] is given as 7.
For `CC1=NN(c2ccccc2Cl)C(=O)C1(C)NO` (centres unmarked) [Compound 11a, 4-(N-hydroxylamine)-4-methyl-N-(2-chlorophenyl)-5-methyl-pyrazolone], the half-life [1, 8] was 120 h.
For `CN1C(=O)CC(=O)N(C)C1=O` [N,N-dimethyl barbituric acid], the pKa [3] is given as 4.7.
For `CC1(C)OC(=O)C(C)(NO)C(=O)O1` [Compound 1a, 5-(N-hydroxylamine)-5-methyl-Meldrum's acid hydrochloride monohydrate], the “HNO / N2O production (in words)” value [4] was “only trace amounts of N2O” and the “% HNO” value [4] was 2%.
`CC1=NN(c2ccc(Cl)cc2)C(=O)C1(C)NO` (centres unmarked) [Compound 10a, 4-(N-hydroxylamine)-4-methyl-N-(4-chlorophenyl)-5-methyl-pyrazolone] showed a half-life [1, 8] of 84 h.
For `CO/N=C(\C)C1(NO)C(=O)N(C)C(=O)N(C)C1=O` [Compound 4a, 5-(N-hydroxylamine)-5-(acetyl-O-methoxyoxime)-N,N-dimethylbarbituric acid], the “HNO / N2O production (in words)” value [4] was “high yield of N2O”, the “% HNO” value [4] was 110% and the “decomposition rate constant k (single exponential fit)” value ([1]; 4a to 4b, PBS, pH 7.4, room temperature) was 0.0024 s⁻¹. For the same molecule, the half-life ([5]; buffer, pH 4, pH 4.0 and room temperature, read-out: half-life (converted)) was ~24 h, the half-life ([5]; buffer, pH 7.4, footnote c not given, pH 7.4, 37° C., read-out: t1/2) was 0.0117 h and the half-life ([5]; buffer, pH 7.4, pH 7.4 and 37° C., read-out: half-life (converted)) was ~0.0167 h. For the same molecule, the “pH near which the decomposition rate sharply increases” value ([5]; decomposition rate as a function of pH at 25° C., UV-Vis) was ~8, the “Mean Blood Pressure” value ([6]; baseline 124 (4a) / 138 (6a)) was 71 mmHg and the “Stroke Volume” value ([6]; mean, baseline 1 (4a) / 2.2 (6a)) was 1.2 relative volume units. The “End Diastolic Pressure Volume Relationship” value ([6]; mean, baseline 1.7 (4a) / 1.8 (6a)) was 1.6, the “End Diastolic Pressure” value ([6]; mean, baseline 4.7 (4a) / 4.4 (6a)) was 3.4 mmHg and the Tau ([6]; mean, baseline 8.5 (4a) / 8.7 (6a)) was 7.8 ms. The “Arterial Elastance” value ([6]; mean, baseline 9.2 (4a) / 7.4 (6a)) was 4.8, the “End Diastolic Volume” value ([6]; mean, baseline 14.6 (4a) / 19.2 (6a)) was 15 relative volume units and the “End Systolic Pressure Volume Relationship” value ([6]; mean, baseline 28.1 (4a) / 23.7 (6a)) was 34.1. For the same molecule, the “Pre-Load Recruitable Stroke Work” value ([6]; mean, baseline 37.6 (4a) / 42.8 (6a)) was 54.3, the “Diastolic Blood Pressure” value ([6]; mean, baseline 109 (4a) / 121 (6a)) was 62 mmHg and the “Stroke Work” value ([6]; mean, baseline 112 (4a) / 227 (6a)) was 74 relative volume units × mmHg. The “End Systolic Pressure” value ([6]; mean, baseline 134 (4a) / 141 (6a)) was 71 mmHg, the “Systolic Blood Pressure” value ([6]; mean, baseline 147 (4a) / 160 (6a)) was 85 mmHg and the “Pressure Volume Area” value ([6]; mean, baseline 343 (4a) / 590 (6a)) was 151. The “Heart Rate” value ([6]; mean, baseline 365 (4a) / 340 (6a)) was 350 bp, m, the “Left Ventricular +dP/dt” value ([6]; mean, baseline 6392 (4a) / 7689 (6a)) was 3518 mmHg/s and the “Left Ventricular −dP/dt” value ([6]; mean, baseline −7585 (4a) / −8257 (6a)) was −4096 mmHg/s.
With `CO/N=C(\C)C1(NO)C(=O)OC(C)(C)OC1=O` [Compound 2a, 5-(N-hydroxylamine)-5-(acetyl-O-methoxyoxime)-Meldrum's acid] the “HNO / N2O production (in words)” value [4] was “enhanced HNO yield”, the “% HNO” value [4] was 25% and the half-life ([5]; PBS, pH 7.4, footnote c not given, pH 7.4, 37° C., read-out: t1/2) was 0.015 h.
